The NIST ThermoML archive (doi:10.1016/j.jct.2015.08.014)

Experiment: xn = mol fraction of the nth substance listed
Details: 100 kPa, Liquid; for electrical conductivity: Alternating current cell with electrodes; for mass density: Vibrating tube method; for viscosity: Capillary tube (Ostwald / Ubbelohde) method

CCCC[N+]1(C)CCCC1.N#CN=C=[N-] [1-butyl-1-methylpyrrolidinium dicyanamide] + O=C1CCCO1
Details	electrical conductivity [S/m]
283.15 K, Frequency=0.008 MHz, x1 = 0.0463	1.17
283.15 K, Frequency=0.008 MHz, x1 = 0.0987	1.73
283.15 K, Frequency=0.008 MHz, x1 = 0.1449	1.93
283.15 K, Frequency=0.008 MHz, x1 = 0.1859	2.028
283.15 K, Frequency=0.008 MHz, x1 = 0.2493	1.926
283.15 K, Frequency=0.008 MHz, x1 = 0.3029	1.84
283.15 K, Frequency=0.008 MHz, x1 = 0.3845	1.66
283.15 K, Frequency=0.008 MHz, x1 = 0.4985	1.407
283.15 K, Frequency=0.008 MHz, x1 = 0.6954	1.07
283.15 K, Frequency=0.008 MHz, x1 = 0.9013	0.849
283.15 K, Frequency=0.008 MHz, x1 = 1	0.786
283.15 K, Frequency=0.00857143 MHz, x1 = 0.0463	1.17
283.15 K, Frequency=0.00857143 MHz, x1 = 0.0987	1.73
283.15 K, Frequency=0.00857143 MHz, x1 = 0.1449	1.93
283.15 K, Frequency=0.00857143 MHz, x1 = 0.1859	2.028
283.15 K, Frequency=0.00857143 MHz, x1 = 0.2493	1.926
283.15 K, Frequency=0.00857143 MHz, x1 = 0.3029	1.84
283.15 K, Frequency=0.00857143 MHz, x1 = 0.3845	1.66
283.15 K, Frequency=0.00857143 MHz, x1 = 0.4985	1.407
283.15 K, Frequency=0.00857143 MHz, x1 = 0.6954	1.07
283.15 K, Frequency=0.00857143 MHz, x1 = 0.9013	0.849
283.15 K, Frequency=0.00857143 MHz, x1 = 1	0.786
283.15 K, Frequency=0.00892857 MHz, x1 = 0.0463	1.17
283.15 K, Frequency=0.00892857 MHz, x1 = 0.0987	1.73
283.15 K, Frequency=0.00892857 MHz, x1 = 0.1449	1.93
283.15 K, Frequency=0.00892857 MHz, x1 = 0.1859	2.028
283.15 K, Frequency=0.00892857 MHz, x1 = 0.2493	1.926
283.15 K, Frequency=0.00892857 MHz, x1 = 0.3029	1.84
283.15 K, Frequency=0.00892857 MHz, x1 = 0.3845	1.66
283.15 K, Frequency=0.00892857 MHz, x1 = 0.4985	1.407
283.15 K, Frequency=0.00892857 MHz, x1 = 0.6954	1.07
283.15 K, Frequency=0.00892857 MHz, x1 = 0.9013	0.849
283.15 K, Frequency=0.00892857 MHz, x1 = 1	0.786
283.15 K, Frequency=0.00961538 MHz, x1 = 0.0463	1.17
283.15 K, Frequency=0.00961538 MHz, x1 = 0.0987	1.73
283.15 K, Frequency=0.00961538 MHz, x1 = 0.1449	1.93
283.15 K, Frequency=0.00961538 MHz, x1 = 0.1859	2.028
283.15 K, Frequency=0.00961538 MHz, x1 = 0.2493	1.927
283.15 K, Frequency=0.00961538 MHz, x1 = 0.3029	1.84
283.15 K, Frequency=0.00961538 MHz, x1 = 0.3845	1.66
283.15 K, Frequency=0.00961538 MHz, x1 = 0.4985	1.407
283.15 K, Frequency=0.00961538 MHz, x1 = 0.6954	1.07
283.15 K, Frequency=0.00961538 MHz, x1 = 0.9013	0.849
283.15 K, Frequency=0.00961538 MHz, x1 = 1	0.786
283.15 K, Frequency=0.01 MHz, x1 = 0.0463	1.17
283.15 K, Frequency=0.01 MHz, x1 = 0.0987	1.73
283.15 K, Frequency=0.01 MHz, x1 = 0.1449	1.93
283.15 K, Frequency=0.01 MHz, x1 = 0.1859	2.028
283.15 K, Frequency=0.01 MHz, x1 = 0.2493	1.927
283.15 K, Frequency=0.01 MHz, x1 = 0.3029	1.84
283.15 K, Frequency=0.01 MHz, x1 = 0.3845	1.66
283.15 K, Frequency=0.01 MHz, x1 = 0.4985	1.407
283.15 K, Frequency=0.01 MHz, x1 = 0.6954	1.07
283.15 K, Frequency=0.01 MHz, x1 = 0.9013	0.849
283.15 K, Frequency=0.01 MHz, x1 = 1	0.786
293.15 K, Frequency=0.0005 MHz, x1 = 0.0463	1.36
293.15 K, Frequency=0.0005 MHz, x1 = 0.0987	2.03
293.15 K, Frequency=0.0005 MHz, x1 = 0.1449	2.31
293.15 K, Frequency=0.0005 MHz, x1 = 0.1859	2.426
293.15 K, Frequency=0.0005 MHz, x1 = 0.2493	2.37
293.15 K, Frequency=0.0005 MHz, x1 = 0.3029	2.28
293.15 K, Frequency=0.0005 MHz, x1 = 0.3845	2.108
293.15 K, Frequency=0.0005 MHz, x1 = 0.4985	1.84
293.15 K, Frequency=0.0005 MHz, x1 = 0.6954	1.45
293.15 K, Frequency=0.0005 MHz, x1 = 0.9013	1.19
293.15 K, Frequency=0.0005 MHz, x1 = 1	1.122
293.15 K, Frequency=0.001 MHz, x1 = 0.0463	1.36
293.15 K, Frequency=0.001 MHz, x1 = 0.0987	2.04
293.15 K, Frequency=0.001 MHz, x1 = 0.1449	2.31
293.15 K, Frequency=0.001 MHz, x1 = 0.1859	2.435
293.15 K, Frequency=0.001 MHz, x1 = 0.2493	2.37
293.15 K, Frequency=0.001 MHz, x1 = 0.3029	2.29
293.15 K, Frequency=0.001 MHz, x1 = 0.3845	2.111
293.15 K, Frequency=0.001 MHz, x1 = 0.4985	1.84
293.15 K, Frequency=0.001 MHz, x1 = 0.6954	1.46
293.15 K, Frequency=0.001 MHz, x1 = 0.9013	1.19
293.15 K, Frequency=0.001 MHz, x1 = 1	1.122
293.15 K, Frequency=0.0015 MHz, x1 = 0.0463	1.37
293.15 K, Frequency=0.0015 MHz, x1 = 0.0987	2.04
293.15 K, Frequency=0.0015 MHz, x1 = 0.1449	2.31
293.15 K, Frequency=0.0015 MHz, x1 = 0.1859	2.44
293.15 K, Frequency=0.0015 MHz, x1 = 0.2493	2.37

Details	electrical conductivity, 293.15 K [S/m]	mass density, 283.15 K [kg/m3]	viscosity, 293.15 K [mPa·s]
x1 = 0.0463	1.37	–	–
x1 = 0.0987	2.05	1116.14	3.07
x1 = 0.1449	2.31	–	–
x1 = 0.1859	2.45	1099.19	4.46
x1 = 0.2493	2.37	–	–
x1 = 0.3029	2.29	1080.61	6.96
x1 = 0.3845	2.116	–	–
x1 = 0.4985	1.84	1057.34	13.06
x1 = 0.6954	1.46	1040.35	21.74
x1 = 0.9013	1.19	1027.12	33.58
x1 = 1	1.123	1021.96	40.25
